Measured values from US8546376B2, “Pharmaceutical compounds” (Almac Discovery Limited, priority 2009, dated 2013).
pIC50: −log10 of the molar value. Counter-ions that a name gives are not always drawn.

Legend:
Type in all cases: biochemical
AKT2 = biological target: T1, AKT2 (Homo sapiens, UniProt P31751); test: AKT Kinase Assay (IMAP fluorescent polarisation) vs AKT2; details: activated AKT2, FAM Crosstide substrate
T1 construct: purchased SignalChem
Procedure, shortened: (§1)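 IC50 values came from non-linear regression of % inhibition relative to vehicle, measured by IMAP fluorescence polarisation (485/528 nm) after a 1 h room-temperature reaction of FAM-Crosstide and ATP. Each activated isoform was first exposed to compound for 45 min across fourteen half-log doses.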

AKT3 = biological target: T2, AKT3 (Homo sapiens, UniProt Q9Y243); test: AKT Kinase Assay (IMAP fluorescent polarisation) vs AKT3; details: activated AKT3, FAM Crosstide substrate
T2 construct: purchased SignalChem
T2 sequence (Q9Y243 whole entry): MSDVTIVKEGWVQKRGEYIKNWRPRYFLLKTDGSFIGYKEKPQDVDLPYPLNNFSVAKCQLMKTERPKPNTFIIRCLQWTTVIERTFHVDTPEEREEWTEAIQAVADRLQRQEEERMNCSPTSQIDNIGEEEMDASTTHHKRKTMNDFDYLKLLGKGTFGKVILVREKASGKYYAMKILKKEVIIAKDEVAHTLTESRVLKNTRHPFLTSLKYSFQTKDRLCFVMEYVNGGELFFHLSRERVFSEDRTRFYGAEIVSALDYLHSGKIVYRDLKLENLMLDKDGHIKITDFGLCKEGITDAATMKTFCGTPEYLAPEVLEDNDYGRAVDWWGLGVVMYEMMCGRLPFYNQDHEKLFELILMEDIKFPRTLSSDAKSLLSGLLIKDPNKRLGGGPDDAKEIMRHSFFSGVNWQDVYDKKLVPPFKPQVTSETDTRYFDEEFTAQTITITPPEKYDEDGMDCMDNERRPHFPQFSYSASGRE
Procedure, shortened: as §1

AKT1 = biological target: T3, AKT1 (Homo sapiens, UniProt P31749); test: AKT Kinase Assay (IMAP fluorescent polarisation) vs AKT1; details: activated AKT1, FAM Crosstide substrate
T3 construct: purchased SignalChem
T3 sequence (P31749 whole entry): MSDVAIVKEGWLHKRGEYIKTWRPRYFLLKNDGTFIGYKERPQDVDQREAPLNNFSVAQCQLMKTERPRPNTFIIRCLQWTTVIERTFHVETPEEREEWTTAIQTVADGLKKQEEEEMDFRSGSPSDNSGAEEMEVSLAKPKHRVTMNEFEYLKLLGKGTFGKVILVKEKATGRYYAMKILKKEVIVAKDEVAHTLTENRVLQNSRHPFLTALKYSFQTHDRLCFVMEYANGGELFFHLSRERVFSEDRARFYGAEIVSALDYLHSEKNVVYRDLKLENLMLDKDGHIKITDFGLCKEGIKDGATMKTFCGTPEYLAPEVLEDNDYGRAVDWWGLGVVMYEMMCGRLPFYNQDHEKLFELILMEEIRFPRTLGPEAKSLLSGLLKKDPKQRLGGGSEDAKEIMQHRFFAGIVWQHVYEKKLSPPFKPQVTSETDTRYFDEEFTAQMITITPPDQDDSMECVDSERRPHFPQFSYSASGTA
Procedure, shortened: as §1

T1 sequence (P31751 whole entry): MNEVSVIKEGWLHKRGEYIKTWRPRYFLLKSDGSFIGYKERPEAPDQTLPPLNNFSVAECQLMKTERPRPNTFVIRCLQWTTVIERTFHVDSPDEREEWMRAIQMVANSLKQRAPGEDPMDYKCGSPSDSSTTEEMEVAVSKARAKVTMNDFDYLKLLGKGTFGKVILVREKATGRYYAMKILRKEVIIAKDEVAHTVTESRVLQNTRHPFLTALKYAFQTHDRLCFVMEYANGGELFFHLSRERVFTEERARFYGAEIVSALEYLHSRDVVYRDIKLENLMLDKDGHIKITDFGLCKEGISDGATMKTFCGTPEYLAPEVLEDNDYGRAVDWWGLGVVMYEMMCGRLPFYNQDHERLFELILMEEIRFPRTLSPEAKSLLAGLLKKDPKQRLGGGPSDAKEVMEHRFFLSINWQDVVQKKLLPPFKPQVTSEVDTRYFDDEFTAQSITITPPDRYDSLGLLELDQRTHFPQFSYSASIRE

SMILES | pIC50 (AKT2) | pIC50 (AKT3) | pIC50 (AKT1)
NC1(c2ccc(-c3c(-c4ccccc4)oc4c(Oc5ccccn5)nccc4c3=O)cc2)CCC1 [Example 103, 3-[1-(1-Amino-cyclobutyl)-phenyl]-2-phenyl-8-(pyridin-2-yloxy)-pyrano[2,3-c]pyridin-4-one hydrochloride] | 5.00 to 6.00 | < 5.00 | ≥ 6.00
NC1(c2ccc(-c3c(-c4ccccc4)oc4c5c(ccc4c3=O)OCC(=O)N5)cc2)CCC1 [Example 109, 8-(4-(1-aminocyclobutyl)phenyl)-9-phenylchromeno[7,8-b][1.4]oxazine-2,7(1H,3H)-dione] | 5.00 to 6.00 | 5.00 to 6.00 | ≥ 6.00
N#CCOc1ccc2c(=O)c(-c3ccc(C4(N)CCC4)cc3)c(-c3ccccc3)oc2c1Br [Example 110, 2-(3-(4-(1-aminocyclobutyl)phenyl)-8-bromo-4-oxo-2-phenyl-4H-chromen-7-yloxy)acetonitrile] | 5.00 to 6.00 | 5.00 to 6.00 | ≥ 6.00
N#CCn1ncc2ccc3c(=O)c(-c4ccc(C5(N)CCC5)cc4)c(-c4ccccc4)oc3c21 [Example 111, 2-(7-(4-(1-aminocyclobutyl)phenyl)-6-oxo-8-phenylpyrano[3,2-g]indazol-1(6H)-v1)acetonitrile] | 5.00 to 6.00 | 5.00 to 6.00 | ≥ 6.00
CN1C(=O)COc2c1ccc1c(=O)c(-c3ccc(C4(N)CCC4)cc3)c(-c3ccccc3)oc21 [Example 112, 8-(4-(1-aminocyclobutyl)phenyl)-4-methyl-9-phenylchromeno[8,7-b][1,4]oxazine-3,7(2H,4H)-dione] | ≥ 6.00 | 5.00 to 6.00 | ≥ 6.00
Cc1c(-c2nccc3c(=O)c(-c4ccc(C5(N)CCC5)cc4)c(-c4ccccc4)oc23)cnn1C [Example 116, 3-(4-(1-aminocyclobutyl)phenyl)-8-(1,5-dimethyl-1H-pyrazol-4-yl)-2-phenyl-4H-pyrano[2,3-c]pyridin-4-one] | 5.00 to 6.00 | 5.00 to 6.00 | ≥ 6.00
NC1(c2ccc(-c3c(-c4ccccc4)oc4c(-c5cccnc5)nccc4c3=O)cc2)CCC1 [Example 123, 3-(4-(1-aminocyclobutyl)phenyl)-2-phenyl-8-(pyridin-3-yl)-4H-pyrano[2,3-c]pyridin-4-one hydrochloride] | ≥ 6.00 | 5.00 to 6.00 | ≥ 6.00
NC1(c2ccc(-c3c(-c4ccccc4)oc4c(-c5ccccc5)nccc4c3=O)cc2)CCC1 [Example 124, 3-(4-(1-aminocyclobutyl)phenyl)-2,8-diphenyl-4H-pyrano[2,3-c]pyridin-4-one] | 5.00 to 6.00 | 5.00 to 6.00 | ≥ 6.00
NC1(c2ccc(-c3c(-c4ccccc4)oc4c(OCCO)nccc4c3=O)cc2)CCC1 [Example 125, 3-(4-(1-aminocyclobutyl)phenyl)-8-(2-hydroxyethoxy)-2-phenyl-4H-pyrano[2,3-c]pyridin-4-one] | 5.00 to 6.00 | < 5.00 | ≥ 6.00
N#Cc1nccc2c(=O)c(-c3ccc(C4(N)CCC4)cc3)c(-c3ccccc3)oc12 [Example 127, 3-(4-(1-aminocyclobutyl)phenyl)-4-oxo-2-phenyl-4H-pyrano[2,3-c]pyridine-8-carbonitrile] | 5.00 to 6.00 | < 5.00 | ≥ 6.00
CCc1nccc2c(=O)c(-c3ccc(C4(N)CCC4)cc3)c(-c3ccccc3)oc12 [Example 128, 3-(4-(1-aminocyclobutyl)phenyl)-8-ethyl-2-phenyl-4H-pyrano[2,3-c]pyridin-4-one] | 5.00 to 6.00 | < 5.00 | ≥ 6.00
NC1(c2ccc(-c3c(-c4ccccc4)oc4c(CCCl)nccc4c3=O)cc2)CCC1 [Example 129, 3-(4-(1-aminocyclobutyl)phenyl)-8-(2-chloroethyl)-2-phenyl-4H-pyrano[2,3-c]pyridin-4-one] | ≥ 6.00 | 5.00 to 6.00 | ≥ 6.00

Other lines, results leading:

pIC50 (AKT2) | pIC50 (AKT3) | pIC50 (AKT1) | SMILES
≥ 6.00 | ≥ 6.00 | ≥ 6.00 | Cn1cc(-c2nccc3c(=O)c(-c4ccc(C5(N)CCC5)cc4)c(-c4ccccc4)oc23)cn1 [Example 101, 3-[4-(1-Amino-cyclobutyl)-phenyl]-8-(1-methyl-1H-pyrazol-4-yl)-2-phenyl-pyrano[2,3-c]pyridin-4-one hydrochloride]
5.00 to 6.00 | < 5.00 | ≥ 6.00 | NC1(c2ccc(-c3c(-c4ccccc4)oc4c(-n5cnnc5)nccc4c3=O)cc2)CCC1 [Example 102, 3-[4-(1-Amino-cyclobutyl)-phenyl]-2-phenyl-8-[1,2,4]triazol-4-yl-pyrano[2,3-c]pyridin-4-one hydrochloride]
< 5.00 | < 5.00 | 5.00 to 6.00 | NC1(c2ccc(-c3c(-c4ccccc4)oc4c(-n5ccccc5=O)nccc4c3=O)cc2)CCC1 [Example 104, 3-[4-(1-Amino-cyclobutyl)-phenyl]-8-(2-oxo-2H-pyridin-1-yl)-2-phenyl-pyrano[2,3-c]pyridin-4-one hydrochloride]
5.00 to 6.00 | 5.00 to 6.00 | ≥ 6.00 | C#Cc1cccc2c(=O)c(-c3ccc(C4(N)CCC4)cc3)c(-c3ccccc3)oc12 [Example 105, 3-[4-(1-Amino-cyclobutyl)-phenyl]-8-ethynyl-2-phenyl-chromen-4-one]
≥ 6.00 | ≥ 6.00 | ≥ 6.00 | NC1(c2ccc(-c3c(-c4ccccc4)oc4c(-c5c[nH]nn5)cccc4c3=O)cc2)CCC1 [Example 106, 3-[4-(1-Amino-cyclobutyl)-phenyl]-2-phenyl-8-(1H-[1,2,3]triazol-4-yl)-chromen-4-one]
< 5.00 | < 5.00 | 5.00 to 6.00 | NC1(c2ccc(-c3c(-c4ccccc4)oc4c(C(=O)O)cccc4c3=O)cc2)CCC1 [Example 107, 3-[4-(1-Amino-cyclobutyl)-phenyl]-4-oxo-2-phenyl-4H-chromene-8-carboxylic acid. trifluoro-acetic acid]
≥ 6.00 | < 5.00 | 5.00 to 6.00 | NC1(c2ccc(-c3c(-c4ccccc4)oc4c(CN5CC(F)C5)cccc4c3=O)cc2)CCC1 [Example 108, 3-[4-(1-Amino-cyclobutyl)-phenyl]-8-(3-fluoro-azetidin-1-ylmethyl)-2-phenyl-chromen-4-one]
< 5.00 | < 5.00 | ≥ 6.00 | NC1(c2ccc(-c3c(-c4ccccc4)oc4c(-c5ccc(C6(N)CCC6)cc5)nccc4c3=O)cc2)CCC1 [Example 113, 3,8-bis(4-(1-aminocyclobutyl)phenyl)-2-phenyl-4H-pyrano[2,3-c]pyridin-4-one]
5.00 to 6.00 | < 5.00 | ≥ 6.00 | NC1(c2ccc(-c3c(-c4ccccc4)oc4c(-n5ccnc5)nccc4c3=O)cc2)CCC1 [Example 114, 3-(4-(1-aminocyclobutyl)phenyl)-8-(1H-imidazol-1-yl)-2-phenyl-4H-pyrano[2,3-c]pyridin-4-one]
5.00 to 6.00 | < 5.00 | < 5.00 | Cc1nn(C)c(C)c1-c1nccc2c(=O)c(-c3ccc(C4(N)CCC4)cc3)c(-c3ccccc3)oc12 [Example 115, 3-(4-(1-aminocyclobutyl)phenyl)-2-phenyl-8-(1,3,5-trimethyl-1H-pyrazol-4-yl)-4H-pyrano[2,3-c]pyridin-4-one]
≥ 6.00 | 5.00 to 6.00 | ≥ 6.00 | CC(C)Cn1cc(-c2nccc3c(=O)c(-c4ccc(C5(N)CCC5)cc4)c(-c4ccccc4)oc23)cn1 [Example 117, 3-(4-(1-aminocyclobutyl)phenyl)-8-(1-isobutyl-1H-pyrazol-4-0)-2-phenyl-4H-pyrano[2,3-c]pyridin-4-one]
5.00 to 6.00 | 5.00 to 6.00 | ≥ 6.00 | COc1ccccc1-c1nccc2c(=O)c(-c3ccc(C4(N)CCC4)cc3)c(-c3ccccc3)oc12 [Example 118, 3-(4-(1-aminocyclobutyl)phenyl)-8-(2-methoxyphenyl)-2-phenyl-4H-pyrano[2,3-c]pyridin-4-one]
5.00 to 6.00 | < 5.00 | 5.00 to 6.00 | CS(=O)(=O)c1ccccc1-c1nccc2c(=O)c(-c3ccc(C4(N)CCC4)cc3)c(-c3ccccc3)oc12 [Example 119, 3-(4-(1-aminocyclobutyl)phenyl)-8-(2-(methylsulfonyl)phenyl)-2-phenyl-4H-pyrano[2,3-c]pyridin-4-one]
5.00 to 6.00 | < 5.00 | 5.00 to 6.00 | Cc1nccc2c(=O)c(-c3ccc(C4(N)CCC4)cc3)c(-c3ccccc3)oc12 [Example 120, 3-(4-(1-aminocyclobutyl)phenyl)-8-methyl-2-phenyl-4H-pyrano[2,3c]pyridin-4-one]
< 5.00 | < 5.00 | 5.00 to 6.00 | NC1(c2ccc(-c3c(-c4ccccc4)oc4c(-c5cccc(F)c5C(=O)O)nccc4c3=O)cc2)CCC1 [Example 121, 2-(3-(4-(1-aminocyclobutyl)phenyl)-4-oxo-2-phenyl-4H-pyrano[2,3-c]pyridin-8-yl)-6-fluorobenzoic acid]
≥ 6.00 | < 5.00 | ≥ 6.00 | N#Cc1cccc(-c2nccc3c(=O)c(-c4ccc(C5(N)CCC5)cc4)c(-c4ccccc4)oc23)c1 [Example 122]
5.00 to 6.00 | < 5.00 | ≥ 6.00 | NC1(c2ccc(-c3c(-c4ccccc4)oc4c(C5CC5)nccc4c3=O)cc2)CCC1 [Example 126, hydrochloride]
